Patent publication US20240415914A1, “Water Dispersible Cannabinoid Compositions” (priority 2021, published 2024)

Test: Stability of cannabinoid and Vitamin E components of Beverage 1 (AB White) stored at 8° C. and 21-25° C., LCMSMS over 570 days
Assay type: physicochemical
Conditions: for Stability in AB White, 8° C. (content by LCMSMS): beverage stored at 8° C.; for Stability in AB White, 21-25° C. (content by LCMSMS): beverage stored at 21-25° C.
Experimental: The LCMSMS was calibrated for 0-1000 ng/ml cannabinoids with the same resin material used in the preparation of the concentrates. At each time period, 100 ml of beverage was diluted with 10 ml of methanol and injected into the LCMSMS for analysis.

CCCCCc1cc(O)c2c(c1)OC1(C)CCC3C1C2C3(C)C (centres unmarked) [CBL, cannabicyclol]
Stability in AB White, 8° C. (content by LCMSMS) (day 0): 0.550 µg/mL
Stability in AB White, 8° C. (content by LCMSMS) (day 1): 0.541 µg/mL
Stability in AB White, 8° C. (content by LCMSMS) (day 2): 0.542 µg/mL
Stability in AB White, 8° C. (content by LCMSMS) (day 3): 0.553 µg/mL
Stability in AB White, 8° C. (content by LCMSMS) (day 5): 0.552 µg/mL
Stability in AB White, 8° C. (content by LCMSMS) (day 8): 0.537 µg/mL
Stability in AB White, 8° C. (content by LCMSMS) (day 9): 0.535 µg/mL
Stability in AB White, 8° C. (content by LCMSMS) (day 10): 0.544 µg/mL
Stability in AB White, 8° C. (content by LCMSMS) (day 11): 0.544 µg/mL
Stability in AB White, 8° C. (content by LCMSMS) (day 12): 0.553 µg/mL
Stability in AB White, 8° C. (content by LCMSMS) (day 15): 0.534 µg/mL
Stability in AB White, 8° C. (content by LCMSMS) (day 16): 0.546 µg/mL
Stability in AB White, 8° C. (content by LCMSMS) (day 17): 0.540 µg/mL
Stability in AB White, 8° C. (content by LCMSMS) (day 18): 0.536 µg/mL
Stability in AB White, 8° C. (content by LCMSMS) (day 19): 0.537 µg/mL
Stability in AB White, 8° C. (content by LCMSMS) (day 22): 0.555 µg/mL
Stability in AB White, 8° C. (content by LCMSMS) (day 23): 0.545 µg/mL
Stability in AB White, 8° C. (content by LCMSMS) (day 24): 0.548 µg/mL
Stability in AB White, 8° C. (content by LCMSMS) (day 25): 0.540 µg/mL
Stability in AB White, 8° C. (content by LCMSMS) (day 26): 0.534 µg/mL
Stability in AB White, 8° C. (content by LCMSMS) (day 29): 0.547 µg/mL
Stability in AB White, 8° C. (content by LCMSMS) (day 30): 0.544 µg/mL
Stability in AB White, 8° C. (content by LCMSMS) (day 60): 0.543 µg/mL
Stability in AB White, 8° C. (content by LCMSMS) (day 90): 0.527 µg/mL
Stability in AB White, 8° C. (content by LCMSMS) (day 120): 0.534 µg/mL
Stability in AB White, 8° C. (content by LCMSMS) (day 150): 0.540 µg/mL
Stability in AB White, 8° C. (content by LCMSMS) (day 180): 0.542 µg/mL
Stability in AB White, 8° C. (content by LCMSMS) (day 210): 0.534 µg/mL
Stability in AB White, 8° C. (content by LCMSMS) (day 240): 0.535 µg/mL
Stability in AB White, 8° C. (content by LCMSMS) (day 270): 0.539 µg/mL
Stability in AB White, 8° C. (content by LCMSMS) (day 300): 0.526 µg/mL
Stability in AB White, 8° C. (content by LCMSMS) (day 330): 0.543 µg/mL
Stability in AB White, 8° C. (content by LCMSMS) (day 360): 0.533 µg/mL
Stability in AB White, 8° C. (content by LCMSMS) (day 390): 0.535 µg/mL
Stability in AB White, 8° C. (content by LCMSMS) (day 420): 0.526 µg/mL
Stability in AB White, 8° C. (content by LCMSMS) (day 450): 0.532 µg/mL
Stability in AB White, 8° C. (content by LCMSMS) (day 480): 0.521 µg/mL
Stability in AB White, 8° C. (content by LCMSMS) (day 510): 0.514 µg/mL
Stability in AB White, 8° C. (content by LCMSMS) (day 540): 0.514 µg/mL
Stability in AB White, 8° C. (content by LCMSMS) (day 570): 0.503 µg/mL
Stability in AB White, 21-25° C. (content by LCMSMS) (day 0): 0.550 µg/mL
Stability in AB White, 21-25° C. (content by LCMSMS) (day 1): 0.539 µg/mL
Stability in AB White, 21-25° C. (content by LCMSMS) (day 2): 0.540 µg/mL
Stability in AB White, 21-25° C. (content by LCMSMS) (day 3): 0.543 µg/mL
Stability in AB White, 21-25° C. (content by LCMSMS) (day 5): 0.530 µg/mL
Stability in AB White, 21-25° C. (content by LCMSMS) (day 8): 0.542 µg/mL
Stability in AB White, 21-25° C. (content by LCMSMS) (day 9): 0.535 µg/mL
Stability in AB White, 21-25° C. (content by LCMSMS) (day 10): 0.546 µg/mL
Stability in AB White, 21-25° C. (content by LCMSMS) (day 11): 0.552 µg/mL
Stability in AB White, 21-25° C. (content by LCMSMS) (day 12): 0.529 µg/mL
Stability in AB White, 21-25° C. (content by LCMSMS) (day 15): 0.548 µg/mL
Stability in AB White, 21-25° C. (content by LCMSMS) (day 16): 0.537 µg/mL
Stability in AB White, 21-25° C. (content by LCMSMS) (day 17): 0.554 µg/mL
Stability in AB White, 21-25° C. (content by LCMSMS) (day 18): 0.554 µg/mL
Stability in AB White, 21-25° C. (content by LCMSMS) (day 19): 0.552 µg/mL
Stability in AB White, 21-25° C. (content by LCMSMS) (day 22): 0.547 µg/mL
Stability in AB White, 21-25° C. (content by LCMSMS) (day 23): 0.530 µg/mL
Stability in AB White, 21-25° C. (content by LCMSMS) (day 24): 0.546 µg/mL
Stability in AB White, 21-25° C. (content by LCMSMS) (day 25): 0.532 µg/mL
Stability in AB White, 21-25° C. (content by LCMSMS) (day 26): 0.549 µg/mL
Stability in AB White, 21-25° C. (content by LCMSMS) (day 29): 0.552 µg/mL
Stability in AB White, 21-25° C. (content by LCMSMS) (day 30): 0.543 µg/mL
Stability in AB White, 21-25° C. (content by LCMSMS) (day 60): 0.544 µg/mL
Stability in AB White, 21-25° C. (content by LCMSMS) (day 90): 0.541 µg/mL
Stability in AB White, 21-25° C. (content by LCMSMS) (day 120): 0.516 µg/mL
Stability in AB White, 21-25° C. (content by LCMSMS) (day 150): 0.517 µg/mL
Stability in AB White, 21-25° C. (content by LCMSMS) (day 180): 0.527 µg/mL
Stability in AB White, 21-25° C. (content by LCMSMS) (day 210): 0.514 µg/mL
Stability in AB White, 21-25° C. (content by LCMSMS) (day 240): 0.515 µg/mL
Stability in AB White, 21-25° C. (content by LCMSMS) (day 270): 0.535 µg/mL
Stability in AB White, 21-25° C. (content by LCMSMS) (day 300): 0.532 µg/mL
Stability in AB White, 21-25° C. (content by LCMSMS) (day 330): 0.526 µg/mL
Stability in AB White, 21-25° C. (content by LCMSMS) (day 360): 0.526 µg/mL
Stability in AB White, 21-25° C. (content by LCMSMS) (day 390): 0.518 µg/mL
Stability in AB White, 21-25° C. (content by LCMSMS) (day 420): 0.523 µg/mL
Stability in AB White, 21-25° C. (content by LCMSMS) (day 450): 0.521 µg/mL
Stability in AB White, 21-25° C. (content by LCMSMS) (day 480): 0.510 µg/mL
Stability in AB White, 21-25° C. (content by LCMSMS) (day 510): 0.503 µg/mL
Stability in AB White, 21-25° C. (content by LCMSMS) (day 540): 0.510 µg/mL
Stability in AB White, 21-25° C. (content by LCMSMS) (day 570): 0.505 µg/mL
